Literature values as cited in patent publication US11975013B2, “Stable formulations comprising thiotepa” (SHORLA PHARMA LTD., priority 2020, dated 2024).

Details: reconstituted in water, stored longer than five days; EP 0 419 890

S=P(N1CC1)(N1CC1)N1CC1 [thiotepa, N,N′,N″-triethylenethiophosphoramide]
potency on storage (in words): substantial loss of potency
